The source of these data is patent US9006191B2, “Silencing of polo-like kinase expression using interfering RNA” (Protiva Biotherapeutics, Inc., priority 2007, dated 2015).

One data set relates to Hep3B liver tumors. Put plainly: Intrahepatic Hep3B tumor model (survival, body weight, tumor burden). It counts as in vivo. To be noted: scid/beige mice, 2 mg/kg IV twice weekly for 3 weeks. How it is done:
SNALP containing PLK-1 siRNA (“1:57” SNALP formulation: 1.4% PEG-cDMA; 57.1% DLinDMA; 7.1% DPPC; and 34.3% cholesterol) were tested for their effects on the survival of […] mice bearing Hep3B liver tumors.
Intrahepatic tumor models. Liver tumors were established in mice by direct intrahepatic injection of Hep3B or Neuro2a tumor cells (45). Female scid/beige mice (Charles River Laboratories) and male A/J mice (Jackson Laboratories) were used as hosts for the Hep3B and Neuro2a tumors, respectively. Animals received Anafen by SC injection immediately prior to surgery. Individual mice were anaesthetized by isoflourane gas inhalation and eye lube applied to prevent excessive eye drying. While maintained under gas anaesthesia, a single 1.5 cm incision across the midline was made below the sternum and the left lateral hepatic lobe exteriorized. 1×10^6 Hep3B cells or 1×10^5 Neuro2a cells suspended in 25 μL PBS were injected slowly into the lobe at a shallow angle using a Hamilton syringe and 30G needle. A swab was then applied to the puncture wound to stop any bleeding prior to suturing. Mice were allowed to recover from anaesthesia in a sterile cage and monitored closely for 2-4 h before being returned to conventional housing.
Eight to 11 days after tumor implantation, mice were randomized into treatment groups. siRNA SNALP formulations or PBS vehicle control were administered by standard intravenous injection via the lateral tail vein, calculated on a mg siRNA/kg basis according to individual animal weights (10 mL/kg injection volume). Body weights were then monitored throughout the duration of the study as an indicator of developing tumor burden and treatment tolerability. For efficacy studies, defined humane endpoints were determined as a surrogate for survival. Assessments were made by qualified veterinary technicians based on a combination of clinical signs, weight loss, and abdominal distension to define the day of euthanization due to tumor burden.
Measurement of human PLK-1 and GAPDH mRNA in tumor tissues. Tumors were harvested directly into RNALater and stored at 4° C. until processing. 100 mg tumor tissue was homogenized in Tissue and Lysis Solution (EpiCentre Biotechnologies) containing […] proteinase K (EpiCentre) in a Fastprep tissue homogenizer followed by incubation in a 65° C. waterbath for 15 min and centrifuged to clarify lysates. mRNA analysis in FIG. 33B was performed on purified RNA isolated according the 5′-RACE-PCR protocol. Human PLK-1 and GAPDH mRNA were measured in tumor lystes by the QuantiGene bDNA assay (Panomics) as per the manufacturer's instructions (Quantigene 1.0 Manual). […] Data were expressed as mean PLK-1:GAPDH ratio+/−SD of individual animals. Tumor burden was assessed by homogenizing the complete liver from tumor bearing mice and measuring the total hGAPDH signal (RLU's) within the liver. Values were expressed as hGAPDH RLU/mg total liver.

In a further data set the test system is PLK-1 mRNA. Briefly: 5′ RACE-PCR of Hep3B liver tumors. It counts as in vivo, human. To be noted: hepatic Hep3B tumors, single 2 mg/kg IV dose. An excerpt: (§1) 5′ RNA Ligase Mediated Rapid Amplification of cDNA ends (5′ RLM RACE).
The test system of data set [1] is IFIT1 mRNA, serum IFNα. To be noted: mouse, in vivo, iv.
Description: (§2) Balb/c mice (n=4 per group) were administered 2.5 mg/kg siRNA or lipid vehicle; serum IFNα (pg/mL) and IFIT1 mRNA (relative to GAPDH) from whole liver lysates were assessed after 4, 8, and 16 h by ELISA and bDNA assay, respectively. […] (b) Serum IFNα and (c) liver IFIT1 mRNA were assessed 4 h after administration (mean+SD, n=4).
(§3) SNALP-formulated Luc (unmodified) and the 2′OMe-modified Luc-U/U, PLK1424-2/A, PLK773-1/B, or KSP2263-U/U siRNA were administered at 2 mg/kg i.v. to Balb/C mice. (A) IFIT1 relative to GAPDH mRNA in liver and spleen was assessed at 4 h by bDNA analysis. […] Serum IFNα was assessed at 6 h by ELISA. […] Values represent mean+SD (n=4).
(§4) IFIT1 mRNA and serum cytokines were assessed 4-6 h after SNALP administration based on the approximate time of peak response for these markers. In these studies, SNALP-formulated native Luc siRNA (Table 6) was used as a positive control for immune stimulation.
(§5) In vivo immune stimulation assays. […] 6-8 week old Balb/C mice were obtained from Harlan and subject to a two week acclimation period prior to use. Mice were administered SNALP formulated siRNA (2 mg/kg) in PBS via standard intravenous injection in the lateral tail vein. Blood was collected by cardiac puncture and processed as plasma for cytokine analysis. Liver and spleen were collected into RNALater (Sigma Co.) for IFIT1 mRNA analysis.
(§6) Measurement of IFIT1 mRNA in mouse tissues. Murine liver and spleen were processed for bDNA assay to quantitate IFIT1 mRNA as described above. The IFIT1 probe set was specific to mouse IFIT1 mRNA (positions 4-499 of NM—008331) and the GAPDH probe set was specific to mouse GAPDH mRNA (positions 9-319 of NM—008084). Data is shown as the ratio of IFIT1 relative light units (RLU) to GAPDH RLU.
(§7) Cytokine ELISA. All cytokines were quantified using sandwich ELISA kits. These were mouse interferon-α (PBL Biomedical; Piscataway, N.J.) and human and mouse IL-6 (BD Biosciences; San Diego, Calif.).
The test system of data set [2] is IFIT1 mRNA, serum IFNα. Briefly: In vivo immune stimulation assay in Balb/c mice (IFIT1 mRNA, serum IFNα). To be noted: SNALP-formulated siRNA IV; for IFIT1 mRNA induction in liver and spleen: 4 h.
Description: as §2, §3, §4, §5, §6, §7
A further data set relates to Neuro2a liver tumors. Put plainly: Intrahepatic Neuro2a tumor model (survival). The data set is classed as in vivo, mouse. To be noted: A/J mice, hepatic Neuro2a tumors, 4 mg/kg Q3d x5. How it is done: PLK1424-2/A treatment confers significant survival advantages in scid/beige mice bearing hepatic Hep3B tumors. Mice were administered SNALP-formulated PLK1424-2/A (n=15) or Luc-U/U (n=8) at 6×2 mg/kg, intravenous twice weekly (d 10 to d 28). (A) Body weights (mean+SD) over the dosing period expressed as % of initial weight on d 10. (B) Kaplan-Meier plot of days to euthanization due to tumor burden. […] (p=0.03, Log-rank Mantel Cox test). (C) Residual hepatic Hep3B tumor burden in mice 24 h after final administration of PLK1424-2/A siRNA (5×2 mg/kg siRNA on d 8, 11, 14, 18 & 21). Bars represent hGAPDH mRNA/mg liver of individual mice (mean+/−SD of triplicate analyses) determined by human-specific bDNA assay (No tumor=livers from non-tumor seeded mice). […]
Intrahepatic tumor models. […] Mice were allowed to recover from anaesthesia in a sterile cage and monitored closely for 2-4 h before being returned to conventional housing.
Eight to 11 days after tumor implantation, mice were randomized into treatment groups. siRNA SNALP formulations or PBS vehicle control were administered by standard intravenous injection via the lateral tail vein, calculated on a mg siRNA/kg basis according to individual animal weights (10 mL/kg injection volume). Body weights were then monitored throughout the duration of the study as an indicator of developing tumor burden and treatment tolerability. […]

For a further data set, the system named is HeLa cells. Put plainly: Monoastral spindle formation in HeLa cells. It counts as cell-based, human. To be noted: 20 nM, 16 h. How it is done: HeLa cells were treated for 16 h with (A) Luc or (B) KSP2263 siRNA at 20 nM then immunostained for α-tubulin (FITC). DNA was stained with DAPI and flourescent images captured and overlayed.
The test system of the next data set is Neuro2a tumors. Put plainly: Hepatic Neuro2a tumor histology (H&E, quantitative). The data set is classed as in vivo, mouse. How it is done: Hepatic Neuro2a tumor histology 24 h after a single intravenous administration of (A) Luc-U/U or (B) KSP2263-U/U siRNA formulated in SNALP (2 mg/kg siRNA). Images are at 200× magnification and representative of tumors from at least 6 individual mice. […] (C) Quantitative histology of H&E stained tumor tissues from mice treated with SNALP-formulated KSP2263-U/U at 4, 2, 1, or 0.5 mg/kg siRNA. Tumor cells with condensed chromatin structures were scored positive and calculated as a % of total tumor cells taken from 10 fields of view. Positive cells included aberrant and typical mitotic and apoptotic figures. Values are mean+SD of 3 mice. Mean SNALP particle size and (polydispersity) were 88 (0.07) and 82 (0.08) nm for KSP2263 and Luc, respectively.
Histology. Tumors were harvested from mice 24 h after siRNA administration and fixed directly in 10% buffered formalin. Tissues were then processed as paraffin embedded tissue sections and stained with Hematoxylin and Eosin using conventional histological techniques. Quantitative analysis of stained sections was performed by counting the number of mitotic/apoptotic cells displaying condensed chromatin structures as a percentage of total tumor cells. Values for each tumor were derived from means of 10 fields of view at 400× magnification.

In data set [3] the test system is mouse KSP mRNA. Briefly: 5′ RACE-PCR of hepatic Neuro2a tumors. It counts as in vivo.
Description: as §1

Data set [4] deals with mouse KSP mRNA. Briefly: 5′ RACE-PCR in Neuro2a cells. It counts as cell-based. To be noted: 24 h. How it is done: (A) HT29 cells were treated with 10 nM SNALP-formulated PLK1424, Luc siRNA or PBS. RNA was isolated 24 hours after transfection and assayed for the specific PLK-1 mRNA cleavage product by 5′-RACE-PCR. (B) Neuro2a cells were treated with SNALP-formulated KSP2263, PLK773 siRNA or PBS. RNA was isolated 24 hours after transfection and assayed for the specific mouse KSP mRNA cleavage product by 5′-RACE-PCR.
The detection of specific RNA cleavage products generated by RISC-mediated hydrolysis of target mRNA is the definitive marker confirming RNAi as the mechanism of gene silencing (39, 40). Activated RISC cleaves target mRNA precisely between the nucleotides complementary to positions 10 and 11 of the siRNA AS strand generating an mRNA cleavage product that is unique to the siRNA sequence. This can be detected in cells using an appropriately designed 5′-rapid amplification of cDNA ends-PCR method (RACE-PCR). We developed RACE-PCR assays to detect the PLK1424-specific cleavage product of human PLK-1 mRNA and the KSP2263-specific cleavage product of mouse KSP mRNA.
as §1

Data set [5] can be described thus: Multi-dose toxicity study in CD1 ICR mice. The data set is classed as in vivo, mouse. To be noted: 2 mg/kg twice weekly, after 15 and 29 days. How it is done:
Groups of CD1 ICR mice were administered PBS, PLK773-1/B, or Luc-U/U SNALP to assess potential cumulative toxicities associated with either PLK-1 silencing or the lipid vehicle. Mice were treated twice weekly at 2 mg/kg siRNA, equivalent to the efficacious dosing regimen in tumor studies. […] All values are mean+/−SD (n=6). No changes in red blood cell parameters were observed.

The subject of data set [6] is Flt3-ligand derived murine dendritic cells. Briefly: Cytokine induction in murine Flt3L dendritic cell cultures (ELISA). It counts as cell-based, mouse. To be noted: murine Flt3L DC, 5 μg/ml siRNA in SNALP, 24 h. How it is done: Cytokine Induction Assays: Flt3-ligand derived murine dendritic cells (Flt3L DC) were generated as described by Gilliet et al. (J. Exp. Med., 195:953-958) using 100 ng/ml murine Flt3-ligand (PeproTech Inc.; Rocky Hill, N.J.) supplemented media. Femurs and tibiae of female Balb/C mice were isolated and rinsed in sterile PBS. The ends of bones were cut and marrow harvested in complete media (RPMI 1640, 10% heat inactivated FBS, 1% penicillin/streptomycin, 2 mM L-glutamine, 1 mM sodium pyruvate, 25 mM HEPES, 50 μM 2-mercaptoethanol). Bone marrow cells were passed through a 70 μm strainer, centrifuged at 1000 rpm for 7 minutes, and resuspended in complete media supplemented with 100 ng/ml murine Flt3L to 2×10^6 cells/ml. 2 mls of cells were seeded in 6-well plates and 1 ml fresh complete media added every two or three days. On day 9 of culture, non-adherent cells were washed in complete media and plated into 96-well plates at concentrations ranging from 0.5 to 2.5×10^5 cells/well. 2′OMe-modified and unmodified (0/0) PLK-1 SNALP were diluted in PBS and added to Flt3L DC cultures at 5 μg/ml siRNA. Cells were incubated for 24 hours at 37° C. before supernatants were assayed for cytokines by ELISA.
Cytokine ELISA: Interferon-α and IL-6 in culture supernatants were quantified using sandwich ELISA kits according to manufacturer's instructions. These were mouse IFN-α (PBL Biomedical; Piscataway, N.J.) and mouse IL-6 (eBioscience; San Diego, Calif.).
In vitro immune stimulation assays. Mouse Flt3L dendritic cell cultures were generated as described previously (65). In brief, bone marrow from Balb/C mice was harvested in complete media (RPMI 1640, 10% FBS, 1% penicillin/streptomycin, 2 mM L-glutamine, 1 mM sodium pyruvate, 25 mM HEPES, 50 uM 2-mercaptoethanol), passed through a 70 micron strainer and resuspended to 2×10^6 cells/mL in complete media supplemented with 100 ng/mL murine Flt3L (Peprotech). Cells were seeded in 6-well plates and 1 mL fresh Flt3L media added every three days. On day 9 of culture, non-adherent cells were plated into 96 well plates at a concentration 2×10^5 cells/well. Formulated siRNA were diluted in PBS and added to the cells for 24 h before supernatants were assayed for cytokines by ELISA.
Cytokine ELISA. All cytokines were quantified using sandwich ELISA kits.

Where two headings read alike, the source gives them in different places. m = 2'-O-methyl; r = 2'-OH (RNA)

In the case of “Luc-U/U: control 2′OMe siRNA targeting luciferase, SEQ ID NO:233/234 (chain 1 GANUANGNCCGGNNANGNAUU; chain 2 UACANAACCGGACANAANCUU; 2'-O-methyl modifications at selected positions, key for n not given here) [reference compound]”, in the data set on Hep3B liver tumors, the median survival time stood at 32 days. For the same substance, the “time until first euthanization” value in the data set on Hep3B liver tumors (days after tumor seeding) came to 28 days. The “specific cleavage product of PLK-1 mRNA by 5′ RACE-PCR” value in the data set on PLK-1 mRNA is listed as “not evident”. In the data set on IFIT1 mRNA, serum IFNα [1], the “serum IFNα / serum cytokine response” value is reported as “no measurable IFNα”. Besides, the “IFIT1 mRNA induction in liver and spleen” value in the data set with IFIT1 mRNA, serum IFNα [2] is recorded as “no measurable IFNα or increase in IFIT1 mRNA in the liver or spleen”.
With “KSP2263-U/U: 2′OMe-modified KSP2263 duplex, SEQ ID NO:227/229 (chain 1 CNGAAGACCNGAAGACAANTT; chain 2 AUUGUCUNCAGGNCUNCAGTT; siRNA; 2'-O-methyl modifications at selected positions, key for n not given here)”, the median survival time in the data set on Neuro2a liver tumors was found to be 28 days. Further, the monoastral spindle phenotype result in the data set on HeLa cells is given as “induced the distinct monoastral nuclear phenotype in vitro”. Also, the “Neuro2a tumor histology (aberrant mitotic figures)” value in the data set with Neuro2a tumors (24 h after SNALP administration) was “significant numbers of tumor cells with aberrant mitotic figures typical of monoastral and apoptotic cells”. Further, the “tumor cells with condensed chromatin structures, % of total tumor cells” value with Neuro2a tumors (24 h post siRNA treatment) was ~13%. In the data set with mouse KSP mRNA [3], the “RNAi-mediated KSP mRNA cleavage by RACE-PCR” value is “confirmed the specific induction of RNAi-mediated KSP mRNA cleavage within tumors”. For the same substance, the “serum IFNα / serum cytokine response” value in the data set on IFIT1 mRNA, serum IFNα [1] is given as “no measurable IFNα”. For the same substance, the “IFIT1 mRNA induction in liver and spleen” value in the data set with IFIT1 mRNA, serum IFNα [2] is listed as “no measurable IFNα or increase in IFIT1 mRNA in the liver or spleen”. Moreover, the “KSP mRNA cleavage product by 5′ RACE-PCR” value in the data set on mouse KSP mRNA [4] is recorded as “predicted 102 bp RACE-PCR product was amplified”.
Take “PLK773-1/B: 2′OMe-modified PLK773 duplex, SEQ ID NO:220/223 (chain 1 AGACCUACCUCCGGAUCAAUU; chain 2 UUGAUCCGNAGNUAGGNCUUU; siRNA; chain 1: sugars from the 5' end r1 m1 r10 m1 r8, backbone not given here; chain 2: chemistry not given here)”: in data set [5], the “clinical chemistry and blood counts” value was “no significant changes in serum liver enzymes, total wbc, lymphocyte and neutrophil counts, platelet numbers, or rbc parameters”. Also, the “cytokine (IL-6, IFN-α) response” value in data set [6] is given as “completely abrogated”. In the data set with IFIT1 mRNA, serum IFNα [2] (4-6 h), the “serum IFNα / serum cytokine response” value is given as “no measurable IFNα”. Also, the “IFIT1 mRNA induction in liver and spleen” value in the data set on IFIT1 mRNA, serum IFNα [2] is “no measurable IFNα or increase in IFIT1 mRNA in the liver or spleen”.
